TGI data for 10 molecules are collected here from PubChem BioAssay (NCI).

Test systems include COLO 205 colon; DU-145 prostate; HCT-15 colon; HOP-92 NSCLC; HT29 colon; KM12 colon; NCI-H23 lung; NCI-H460 lung; PC-3 prostate; SK-MEL-2 melanoma; SK-MEL-28 melanoma; SK-MEL-5 melanoma; T-47D breast; UACC-257 melanoma.
Assay in all cases: NCI tumour cell line growth inhibition, 48 h

Several values for one entry are separate records, joined by “and”; a condition that tells them apart may be missing. Equal entries are not always repeated.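 Step 1: Grow cells in 96-well plates. Step 2: Expose to compound for 48 hours at 5 concentrations. Step 3: Interpolate endpoints linearly; if unreached, use highest concentration. The concentration for full growth arrest is given as TGI.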

For the molecule `Cn1c2ccccc2c2c(-c3ccccc3)cc3c(c21)C(=O)C=CC3=O`, the TGI with COLO 205 colon is 2.05 µM; with DU-145 prostate it was over 10 µM; with HCT-15 colon it was 5.41 µM; with HOP-92 NSCLC, 3.78 µM; in the experiment with HT29 colon it was over 9 µM; in the experiment on KM12 colon, over 8.77 µM. For the same molecule, the TGI with NCI-H23 lung was 3.81 µM; in the experiment with NCI-H460 lung, over 10 µM; in the experiment on PC-3 prostate, over 6.39 µM; with SK-MEL-2 melanoma, over 7.25 µM; with SK-MEL-28 melanoma it was 4.34 µM; in the experiment with SK-MEL-5 melanoma it was over 9.24 µM. For the same molecule, the TGI in the experiment with T-47D breast worked out at 4.9 µM; with UACC-257 melanoma, 4.62 µM.

`COC(=O)C1(C(=O)OC)Cc2ccc(OC)cc2C2=C1C(=O)c1ccccc1C2=O`: the TGI amounted to 40.5 µM in the experiment on COLO 205 colon; 30.3 µM with DU-145 prostate; 25.2 µM in the experiment with HCT-15 colon; 15.9 µM in the experiment on HOP-92 NSCLC; 59.5 µM with HT29 colon; 23.5 µM in the experiment with KM12 colon. Besides, the TGI in the experiment with NCI-H23 lung came out at 21.9 µM; in the experiment on NCI-H460 lung it was 33 µM; in the experiment on PC-3 prostate, 4.18 µM; in the experiment on SK-MEL-2 melanoma it was 15.7 µM; in the experiment on SK-MEL-28 melanoma, 31.4 µM; in the experiment with SK-MEL-5 melanoma it was 19.3 µM. Moreover, the results for the TGI in the experiment with T-47D breast and in the experiment with UACC-257 melanoma were 6.9 µM and 7.15 µM, respectively.

On to `NC(N)=N/N=C/c1c(-c2ccc(Cl)cc2)nc2sccn12`, for which the TGI in the experiment on COLO 205 colon stood at 2.87 µM; with DU-145 prostate, 13.1 µM; in the experiment on HCT-15 colon it was 6.36 µM; in the experiment with HOP-92 NSCLC, 5.67 µM; with HT29 colon it was 3.23 µM; in the experiment with NCI-H23 lung it was 19.9 µM. In addition, the TGI in the experiment on NCI-H460 lung worked out at 3.53 µM; in the experiment with PC-3 prostate, 3.33 µM; in the experiment with SK-MEL-2 melanoma, 4.31 µM; with SK-MEL-28 melanoma, 3.44 µM; with SK-MEL-5 melanoma, 3.19 µM; with T-47D breast, 3.22 µM. Moreover, in the experiment with UACC-257 melanoma, the TGI was determined as 3.62 µM.

Regarding `COc1ccc(-c2c(C#N)c(N)n(C3OCC(OC(C)=O)C(OC(C)=O)C3OC(C)=O)c(=S)c2C#N)cc1` (centres undefined), the TGI in the experiment with COLO 205 colon is over 100 µM; in the experiment on DU-145 prostate, over 100 µM; in the experiment with HCT-15 colon, over 100 µM; with HOP-92 NSCLC it was 88.8 µM and 98.5 µM; in the experiment on HT29 colon, over 100 µM; in the experiment with KM12 colon, over 100 µM. The TGI with NCI-H23 lung, in the experiment on NCI-H460 lung, in the experiment with PC-3 prostate, in the experiment with SK-MEL-2 melanoma, in the experiment with SK-MEL-28 melanoma and in the experiment with SK-MEL-5 melanoma was over 100 µM in each case. Besides, the TGI was 81.6 µM and > 100 µM with T-47D breast; over 100 µM in the experiment with UACC-257 melanoma.

Take `COC(=O)[C@@H]1CN(C(C)=O)C(=O)N1`: the TGI with COLO 205 colon, in the experiment with DU-145 prostate, with HCT-15 colon, in the experiment on HOP-92 NSCLC, with HT29 colon and with KM12 colon was over 100 µM in each case. Further, the TGI in the experiment with NCI-H23 lung, in the experiment on NCI-H460 lung, with PC-3 prostate, with SK-MEL-2 melanoma, in the experiment with SK-MEL-28 melanoma and in the experiment on SK-MEL-5 melanoma was over 100 µM in each case. Also, the TGI with T-47D breast and in the experiment on UACC-257 melanoma was over 100 µM in each case.

Turning to `CCOc1cc(NC(C)=O)ccc1C(=O)NN1C(=O)C(Cl)C1c1ccccc1` (centres undefined), the TGI came out at 31.8 µM in the experiment with COLO 205 colon; 32.2 µM in the experiment with DU-145 prostate; 45.4 µM in the experiment on HCT-15 colon; 31.7 µM in the experiment on HOP-92 NSCLC; 31.2 µM in the experiment on HT29 colon; 32.9 µM in the experiment on KM12 colon. In addition, the TGI in the experiment on NCI-H23 lung was 32.3 µM; in the experiment on NCI-H460 lung, 33.6 µM; in the experiment with PC-3 prostate, 27.8 µM; in the experiment on SK-MEL-2 melanoma, 29.9 µM; with SK-MEL-28 melanoma, 36.4 µM; in the experiment with SK-MEL-5 melanoma, 23.4 µM. Besides, the values for the TGI in the experiment with T-47D breast and in the experiment with UACC-257 melanoma were 35.4 µM and 28 µM, respectively.

As to `CCOC(=O)c1cccn1S(=O)(=O)c1cc(Cl)ccc1NC(=O)CC`, the TGI was 65.4 µM with COLO 205 colon; over 100 µM in the experiment with DU-145 prostate; over 100 µM with HCT-15 colon; over 100 µM in the experiment on HOP-92 NSCLC; over 100 µM with KM12 colon; over 100 µM in the experiment on NCI-H460 lung. The TGI with PC-3 prostate, in the experiment on SK-MEL-2 melanoma, with SK-MEL-28 melanoma, in the experiment on SK-MEL-5 melanoma, in the experiment on T-47D breast and with UACC-257 melanoma was over 100 µM each time.

`O=C1/C(=C/c2ccccc2O)N=C(c2ccccc2)N1C1Nc2cc3c(cc2S1)NC(N1C(=O)/C(=C/c2ccccc2O)N=C1c1ccccc1)S3` (centres undefined): the TGI was over 100 µM in the experiment with DU-145 prostate; over 100 µM in the experiment with HCT-15 colon; 15 µM in the experiment with HOP-92 NSCLC; over 100 µM in the experiment with HT29 colon; over 100 µM in the experiment on KM12 colon; over 100 µM with NCI-H23 lung. Moreover, the TGI in the experiment with NCI-H460 lung, in the experiment with PC-3 prostate, with SK-MEL-2 melanoma, in the experiment on SK-MEL-28 melanoma, in the experiment with SK-MEL-5 melanoma and with T-47D breast was over 100 µM in each case. Moreover, the TGI with UACC-257 melanoma was over 100 µM.

For the molecule `CSc1nc(C#N)c(/N=C\N(C)C)n1C`, the TGI in the experiment on COLO 205 colon, with DU-145 prostate, in the experiment on HCT-15 colon, in the experiment with HOP-92 NSCLC, in the experiment with KM12 colon and with NCI-H23 lung was over 100 µM in each case. Also, the TGI in the experiment on NCI-H460 lung, in the experiment on PC-3 prostate, with SK-MEL-2 melanoma, with SK-MEL-28 melanoma, in the experiment on SK-MEL-5 melanoma and in the experiment on T-47D breast was over 100 µM in each case. In the experiment on UACC-257 melanoma, the TGI was over 100 µM.

As to `O=[N+]([O-])/C(C(Cl)=C(Cl)Cl)=C(\N1CCOCC1)n1nnc2ccccc21`, the TGI was 34.7 µM with COLO 205 colon; 37.5 µM in the experiment on DU-145 prostate; 29.6 µM with HCT-15 colon; 37.6 µM in the experiment with HOP-92 NSCLC; 45.6 µM in the experiment on KM12 colon; 32.7 µM with NCI-H23 lung. For the same molecule, the TGI in the experiment with NCI-H460 lung was determined as 45.6 µM; in the experiment with PC-3 prostate, 30.8 µM; in the experiment on SK-MEL-2 melanoma it was 47.7 µM; with SK-MEL-28 melanoma, 42.6 µM; with SK-MEL-5 melanoma, 35.3 µM; with T-47D breast, 56.8 µM. This molecule yielded a TGI in the experiment with UACC-257 melanoma of 50.7 µM.
